Measured values from article PMC10815079, “α-L-Fucosidases from an Alpaca Faeces Metagenome: Characterisation of Hydrolytic and Transfucosylation Potential” (International Journal of Molecular Sciences, 2024).

Columns and labels:
Test in all cases: p-nitrophenol release at […] nm, Michaelis-Menten fit
Type in all cases: biochemical, uncultured bacterium (alpaca faeces metagenome)
Details in all cases: 50 mM potassium phosphate pH 7.5, 20 °C
Fuc25C = test system: Fuc25C
Fuc25A = test system: Fuc25A
Fuc25E = test system: Fuc25E
Fuc25D = test system: Fuc25D

Km (Fuc25C): 1400 ± 374 µM
Km (Fuc25A): 334 ± 21.4 µM
Km (Fuc25E): 85.1 ± 12.9 µM
Km (Fuc25D): 79.7 ± 8.6 µM
SMILES: C[C@@H]1O[C@@H](Oc2ccc([N+](=O)[O-])cc2)[C@@H](O)[C@H](O)[C@@H]1O [pNP-αFuc]
